The values below come from EP4745153A1, “GLP-1, GIP AND GCG RECEPTOR […] USE THEREOF” (Jiangsu Hengrui Pharmaceuticals Co., Ltd., priority 2023, dated 2025).

Where two headings read alike, the source gives them in different places. Starred links: 1 amine or outer side, 2 acyl side, 3 side chain; linkers in the order of their positions; H or OH if unused. Non-standard residues stand in square brackets, D forms with d. Residues, ends and D or L forms follow the SMILES beside them. Groups on a side chain read outwards from the residue. No end group written: not given here. *: point of attachment. C20 diacid = O=C(O)CCCCCCCCCCCCCCCCCCC(=O)*; γGlu = O=C(O)[C@H](CCC(=O)[*:2])N[*:1]; αMeL = CC(C)C[C@](C)(N)C(=O)O; Iva = CC[C@](C)(N)C(=O)O; AEEA = NCCOCCOCC(=O)O; Aib = CC(C)(N)C(=O)O

A short description of data set [1]: In vivo efficacy in diet-induced obesity (DIO) rat model. Conditions: DIO rats; for 24h food intake compared with the model group / cumulative food intake compared with the model group: after dose adjustment; for cumulative food intake: entire administration period (before and after dose adjustment). On the procedure:
In this experiment, a DIO rat model established on a 45% high-fat diet (HFD) was used to evaluate the effects of compounds on obesity-related indicators in DIO rats.
After one week of acclimatization, all rats were randomly divided into two groups: a normal group and a model group. The rats in the model group were then fed 45% HFD (Medison: MD12032), while the rats in the normal group were fed normal food. The body weight of the rats was measured weekly to monitor the modeling process.
DIO rats fed a high-fat diet for 37 weeks were weighed, and 75 DIO rats (approximately 1100g) and 8 rats (approximately 800g) on a normal diet (Chow diet) were selected and separated into individual cages. Each cage was fed approximately 100g of food at a time, and the food was changed every 48 hours. A preliminary sham dose experiment was then conducted. Subcutaneous acupuncture was performed on the neck once daily at 4 pm for 9 consecutive days. Body weight was measured before each acupuncture session and the effect of sham dose on body weight was observed. A curve of body weight changes over time was plotted. The formal dosing experiment was initiated after the body weight had stabilized.
Six Chow diet rats (weighing approximately 800g) and 30 HFD rats (weighing approximately 1100g) were selected through a preliminary sham dose experiment for subsequent dosing experiments. […] During the experiment, all rats were housed in single cages. The compound was dissolved in PBS solution at pH 7.4. On the day of grouping (Day 1), rats in each group were given the drug by subcutaneous injection in the neck according to their body weight, once daily (QD), as detailed in Table 9. […] The body weight was measured once daily at 15:00 or before administration, and a curve of body weight changes over time was plotted. Food intake: 1-7 days, measured once daily at 15:00 or before administration; 8-40 days, measured once every three days at 15:00 or before administration. A curve of changes in daily/cumulative food intake over time was plotted. Table 9. Dosing information for experimental groups

In the next data set the target is T1, human GIPR (Homo sapiens, UniProt P48546).
T1 construct: expressed in transfected cells; host or cells: CHO-K1 clonal cell line
T1 sequence (P48546 22-466): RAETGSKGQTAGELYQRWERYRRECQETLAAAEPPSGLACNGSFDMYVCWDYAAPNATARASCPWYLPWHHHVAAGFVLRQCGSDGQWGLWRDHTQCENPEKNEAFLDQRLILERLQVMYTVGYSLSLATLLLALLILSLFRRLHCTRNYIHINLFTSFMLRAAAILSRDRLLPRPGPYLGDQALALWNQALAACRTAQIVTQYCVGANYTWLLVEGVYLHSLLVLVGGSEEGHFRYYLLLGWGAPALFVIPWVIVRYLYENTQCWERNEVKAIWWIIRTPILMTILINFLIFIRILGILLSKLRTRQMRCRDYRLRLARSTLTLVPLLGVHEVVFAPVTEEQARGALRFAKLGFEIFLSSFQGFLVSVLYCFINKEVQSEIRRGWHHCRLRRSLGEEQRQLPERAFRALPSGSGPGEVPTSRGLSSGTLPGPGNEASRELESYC
Description: cAMP HTRF agonist activity assay in CHO-K1 cells expressing GIPR. For Activity against human GIPR (EC50 nM): 5% FBS, 0.1% Casein. It counts as cell-based. The gist of the method: (§1)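 Clonal CHO-K1 lines, 5000 cells/well, exposed to polypeptides for 30 min at 37°C. Intracellular cAMP read by HTRF (cAMP-d2 conjugate plus anti-cAMP-Eu cryptate in lysis buffer). Relative EC50 from four-parameter nonlinear fit of percent maximum response against concentration.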
Background: In TR-FRET formats the signal depends on donor and acceptor labels being close together.

Data set [2] can be described thus: In vivo efficacy in diet-induced obesity (DIO) mouse model. Further details: species or system C57BL/6J mice. The note with it: 10 nmol/kg subcutaneous once daily for 24 days; for body weight reduction at the experimental endpoint: DIO mice. The source says:
In this example, a DIO mouse model established by high-fat diet induction was used to evaluate the effects on and improvement of obesity and diabetes-related indicators in DIO mice after subcutaneous injection of some of the compounds in the present disclosure.
4.1 Experimental methods: Obese male C57BL/6J mice (23-24 weeks old, obtained from Beijing Vital River Laboratory Animal Technology Co., Ltd.) induced by a high-fat diet were purchased. Six-week-old male C57BL/6J mice were fed a 60% high-fat diet (RD D12492) until their body weight reached 45-50g to obtain DIO model mice. After arriving at the facility and undergoing a week of acclimatization feeding, the animals were randomly divided into groups according to their body weight and administered vehicle (model group), LY3437943, Compound 15, Compound 16, Compound 17 and Compound 18 via subcutaneous injection in the neck. The compound was administered at a dose of 10 nmol/kg, and the frequency of administration was once daily via subcutaneous injection for 24 days. Each group contained 5 DIO mice. According to the experimental design, the body weight of each mouse was weighed and recorded daily at 3 pm or before administration, the average body weight of each group of mice was calculated, and a curve of body weight change over time was plotted. After the experiment, the fat and other organs of the mice were removed from various parts of the body, weighed, and recorded.

For another data set, the target named is T2, human GCGR (Homo sapiens, UniProt P47871).
T2 construct: expressed in transfected cells; host or cells: CHO-K1 clonal cell line
The data set can be described thus: cAMP HTRF agonist activity assay in CHO-K1 cells expressing GCGR. Note: 5% FBS, 0.1% Casein. The note with it: read-out: Activity against human GCGR (EC50 nM). It counts as cell-based. A digest of the protocol: as §1

For a further data set, the target named is T3, human GLP-1R (Homo sapiens, UniProt P43220).
T3 construct: expressed in transfected cells; host or cells: CHO-K1 clonal cell line
Description: cAMP HTRF agonist activity assay in CHO-K1 cells expressing GLP-1R. Note: 5% FBS, 0.1% Casein. It counts as cell-based. The note with it: read-out: Activity against human GLP-1R (EC50 nM). A digest of the protocol: as §1

Data set [3] in a line: Pharmacokinetics in mice after single intravenous injection. Further details: species or system C57 mice. The note with it: mouse, in vivo, male C57 mice, single intravenous dose 200 nmol/kg, plasma. The gist of the method:
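Male C57 mice (~25 g, 4-6 weeks, n=3) received a single i.v. dose of 200 nmol/kg in 1×PBS. Plasma collected from 5 min to 72 h was methanol-precipitated with verapamil internal standard and quantified by LC-MS (ESI positive, MRM); PK parameters were calculated by PKSolver.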

For a further data set, the target named is human glucagon receptor (human, UniProt P47871 26-477). The data set can be described thus: cell-based or functional assay.
Data set [4] addresses human glucagon-like peptide-1 receptor (human, UniProt P43220 24-463). The data set can be described thus: cell-based or functional assay.
Data set [5] deals with T4, human glucose-dependent insulinotropic polypeptide receptor (human, UniProt P48546 22-466).
T4 sequence (looked up): T1 sequence (P48546 22-466)
Description: cell-based or functional assay.

Sequence of human glucagon receptor (P47871 26-477): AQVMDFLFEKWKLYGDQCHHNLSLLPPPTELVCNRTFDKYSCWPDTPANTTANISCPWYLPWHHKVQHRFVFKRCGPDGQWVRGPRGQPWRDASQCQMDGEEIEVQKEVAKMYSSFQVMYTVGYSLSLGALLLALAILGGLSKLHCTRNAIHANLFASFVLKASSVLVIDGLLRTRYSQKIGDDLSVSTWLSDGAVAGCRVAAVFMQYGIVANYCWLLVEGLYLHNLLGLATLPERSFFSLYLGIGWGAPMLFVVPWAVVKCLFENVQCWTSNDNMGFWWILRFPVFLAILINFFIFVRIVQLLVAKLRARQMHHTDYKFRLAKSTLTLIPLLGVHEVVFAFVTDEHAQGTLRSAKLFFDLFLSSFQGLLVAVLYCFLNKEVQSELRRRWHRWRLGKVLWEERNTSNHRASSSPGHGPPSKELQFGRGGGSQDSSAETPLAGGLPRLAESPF
T2 sequence (P47871 26-477): as above
T3 sequence (P43220 24-463): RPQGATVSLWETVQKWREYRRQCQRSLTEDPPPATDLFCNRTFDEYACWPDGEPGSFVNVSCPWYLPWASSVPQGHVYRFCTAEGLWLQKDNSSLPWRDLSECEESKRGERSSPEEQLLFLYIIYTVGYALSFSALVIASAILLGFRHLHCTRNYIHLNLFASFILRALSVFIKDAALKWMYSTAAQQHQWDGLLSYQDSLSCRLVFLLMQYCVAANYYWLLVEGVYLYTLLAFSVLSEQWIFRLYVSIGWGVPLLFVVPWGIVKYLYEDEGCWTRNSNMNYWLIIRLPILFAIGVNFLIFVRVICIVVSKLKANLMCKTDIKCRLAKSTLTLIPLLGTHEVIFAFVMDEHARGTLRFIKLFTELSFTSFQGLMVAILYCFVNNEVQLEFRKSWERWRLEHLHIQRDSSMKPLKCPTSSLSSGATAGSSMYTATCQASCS

For `CC[C@H](C)[C@H](NC(=O)[C@H](Cc1ccccc1)NC(=O)[C@H](C)NC(=O)C(C)(C)NC(=O)[C@H](CCC(N)=O)NC(=O)[C@H](C)NC(=O)[C@H](CCCCNC(=O)COCCOCCNC(=O)CC[C@H](NC(=O)CCCCCCCCCCCCCCCCCCC(=O)O)C(=O)O)NC(=O)[C@H](CCCCN)NC(=O)[C@H](CC(=O)O)NC(=O)[C@H](CC(C)C)NC(=O)[C@](C)(CC(C)C)NC(=O)[C@@H](NC(=O)[C@H](CO)NC(=O)[C@H](Cc1ccc(O)cc1)NC(=O)[C@H](CC(=O)O)NC(=O)[C@H](CO)NC(=O)[C@@H](NC(=O)[C@H](Cc1ccccc1)NC(=O)[C@@H](NC(=O)CNC(=O)[C@H](CCC(N)=O)NC(=O)C(C)(C)NC(=O)[C@@H](N)Cc1ccc(O)cc1)[C@@H](C)O)[C@@H](C)O)[C@@H](C)CC)C(=O)N[C@@H](CCC(=O)O)C(=O)N[C@@H](Cc1ccc(O)cc1)C(=O)N[C@@H](CC(C)C)C(=O)N[C@@H](CC(C)C)C(=O)N[C@@H](CCC(=O)O)C(=O)NCC(=O)NCC(=O)N1CCC[C@H]1C(=O)N[C@@H](CO)C(=O)N[C@@H](CO)C(=O)NCC(=O)N[C@@H](C)C(=O)N1CCC[C@H]1C(=O)N1CCC[C@H]1C(=O)N1CCC[C@H]1C(=O)N[C@@H](CO)C(N)=O` [LY3437943, reference compound], in data set [1] (10 nmol/kg subcutaneous QD), the “24h food intake compared with the model group” value is listed as “significantly reduced” and the “cumulative food intake compared with the model group” value is reported as “significantly reduced”. This molecule also gave a cumulative food intake in data set [1] (1 then 10 nmol/kg subcutaneous QD) of 273.8 ± 15.0 g. In addition, in data set [1] (subcutaneous QD, 1 nmol/kg adjusted to 10 nmol/kg from day 15), the “body weight loss at the end of the experiment” value is 29.4%. Besides, the EC50 – broadly, the concentration giving half of the maximal effect – at human GIPR (read-out: Activity against human GIPR (EC50 nM)) worked out at 0.002 nM. In addition, in data set [2], the “body weight of DIO mice compared with the test group given the vehicle” value is “significant reduction in body weight” and the “body weight reduction at the experimental endpoint” value was found to be 30.4%. Besides, the EC50 on human GCGR worked out at 0.412 nM. In addition, the EC50 on human GLP-1R came out at 0.08 nM.
Take `CC[C@H](C)[C@H](NC(=O)[C@H](CO)NC(=O)[C@H](Cc1ccc(O)cc1)NC(=O)[C@H](CC(=O)O)NC(=O)[C@H](CO)NC(=O)[C@@H](NC(=O)[C@H](Cc1ccccc1)NC(=O)[C@@H](NC(=O)CNC(=O)[C@H](Cc1c[nH]cn1)NC(=O)C(C)(C)NC(=O)[C@@H](N)Cc1c[nH]cn1)[C@@H](C)O)[C@@H](C)O)C(=O)N[C@@H](CC(C)C)C(=O)N[C@@H](CC(C)C)C(=O)N[C@@H](CCC(=O)O)C(=O)N[C@@H](CCCCNC(=O)COCCOCCNC(=O)COCCOCCNC(=O)CC[C@H](NC(=O)CCCCCCCCCCCCCCCCCCC(=O)O)C(=O)O)C(=O)N[C@@H](CCCCN)C(=O)N[C@@H](C)C(=O)N[C@@H](C)C(=O)N[C@@H](CCC(N)=O)C(=O)N[C@@H](CCC(=O)O)C(=O)N[C@@H](Cc1ccccc1)C(=O)N[C@H](C(=O)N[C@@H](CCC(=O)O)C(=O)N[C@@H](Cc1c[nH]c2ccccc12)C(=O)N[C@@H](CC(C)C)C(=O)N[C@@H](CC(C)C)C(=O)N[C@@H](C)C(=O)NCC(=O)NCC(=O)N1CCC[C@H]1C(=O)N[C@@H](CO)C(=O)N[C@@H](CO)C(=O)NCC(=O)N[C@@H](C)C(=O)N1CCC[C@H]1C(=O)N1CCC[C@H]1C(=O)N1CCC[C@H]1C(=O)N[C@@H](CO)C(N)=O)C(C)C` [Compound 0120] (H-H[Aib]HGTFTSDYSILLEK([AEEA-AEEA-γGlu-C20 diacid])KAAQEFVEWLLAGGPSSGAPPPS-NH2): in data set [1] (3 nmol/kg subcutaneous QD), the “24h food intake compared with the model group” value is reported as “significantly reduced” and the “cumulative food intake compared with the model group” value is “significantly reduced”. This molecule also gave a cumulative food intake in data set [1] (0.3 then 3 nmol/kg subcutaneous QD) of 258.8 ± 23.5 g. For the same molecule, the “body weight loss at the end of the experiment” value in data set [1] (subcutaneous QD, 0.3 nmol/kg adjusted to 3 nmol/kg from day 15) was 30.2%. In addition, in data set [1] (subcutaneous QD, 1 nmol/kg, before adjusting the administration dose), the “body weight compared with the model group” value is given as “decreasing trend”. Also, in data set [3], the AUC(0-inf) (commonly the area under the concentration-time curve extrapolated to infinity) turned out to be 94.1 µM·h and the C0 worked out at 9.93 µM. The clearance in data set [3] (read-out: CLp) turned out to be 2.04 mL/h/kg. Further, the half-life in [3] (read-out: T1/2 (converted)) is 14.7 h. The same molecule registered an EC50 on human GIPR of 0.002 nM. Further, in data set [2], the “body weight of DIO mice compared with the test group given the vehicle” value is reported as “significant reduction in body weight” and the “body weight reduction at the experimental endpoint” value is given as 36.6%. Also, the “final body weight relative to body weight of mice on a normal diet (Chow)” value in data set [2] (indicating good safety) is recorded as at least 80%.
Take H[Aib]HGTFTSDLSI[αMeL]LEK([AEEA-AEEA-γGlu-C20 diacid])KAA[Iva]EFVEWLLAGGPSSGAPPPS-NH2 [Compound No. 0138]: the “Activity against human GCGR (EC50 nM)” value in the data set with human glucagon receptor turned out to be 0.055 nM. In addition, the “Activity against human GLP-1R (EC50 nM)” value in [4] amounted to 0.019 nM. Further, the “Activity against human GIPR (EC50 nM)” value in [5] was 0.0006 nM.
Turning to H[Aib]HGTFTSDYSI[αMeL]LEK([AEEA-AEEA-γGlu-C20 diacid])KAA[Iva]EFVEWLLAGGPSSGAPPPS-NH2 [Compound No. 0137], the “Activity against human GCGR (EC50 nM)” value with human glucagon receptor stood at 0.047 nM. Besides, the “Activity against human GLP-1R (EC50 nM)” value in data set [4] was found to be 0.013 nM. Further, the “Activity against human GIPR (EC50 nM)” value in data set [5] worked out at 0.001 nM.
